Results taken from ChEMBL document CHEMBL1158281, “Montiporic acids A and B, cytotoxic and antimicrobial polyacetylene carboxylic acids from eggs of the scleractinian coral Montipora digitata” (J Nat Prod, 1996).
≈ marks a conversion by molar mass, not a printed value. Calls of active or inactive are those of the source. The rule behind the calls is not given here.

How the values were obtained:
[1] = system: P388; assay: Cytotoxicity against mouse P388 cells; format: functional, cell-based
[2] = system: Escherichia coli; assay: Antibacterial activity against Escherichia coli; format: functional, organism-based

SMILES	IC50 [1] [µg/mL]	Activity [2]
CCCCCCCC#CC#CCOCC(=O)O [MONOTIPORIC ACID A]	5 (≈ 21.2 µM)	Active
C=CCCCCCCCC#CC#CCOCC(=O)O [MONOTIPORIC ACID B]	12 (≈ 45.7 µM)	Active
